The values below come from patent publication US8779156B2, “Analogues for the treatment or prevention of flavivirus infections” (Vertex Pharmaceuticals Incorporated, priority 2010, dated 2014).

By IC50 is commonly meant the point on the concentration scale where inhibition reaches its midpoint. A low value points to higher potency.

The test system of test [1] is sub-genomic HCV replicon of genotype 1a (cell line W11.8). The test is described as follows: Activity determination using the ELISA and the sub-genomic replicon 1a cell line (NS5A protein level). The class given is cell-based. Particulars: Hepatitis C virus. From the text:
Activity Determination Using the ELISA and the Sub-Genomic Replicon 1a Cell Line
The cell line W11.8 containing the sub-genomic HCV replicon of genotype 1a is used to determine the potency of the drugs. The RNA replication in presence of different drug concentrations is indirectly measured in this cell line by the level of NS5A protein content upon drug treatment for four days. It is shown that the level of the NS5A protein correlates well with the level of HCV RNA in the replicon cell line. Cells are split twice a week in order to keep the confluence state below 85% of the culture flask surface area. The culture media used for cell passaging consists of DMEM-10% foetal bovine serum with 100 UI/mL penicillin, 100 μg/mL streptomycin, 2 mM glutamine, 1 mM sodium pyruvate, non-essential amino acids (1×) and 600 μg/mL of G418 final concentrations. Monolayer of the W11.8 cells is trypsinized and cells are counted. Cells are diluted at 50,000 cells/mL with complete DMEM without G418, then approximately 5,000 viable cells (100 μL) are plated per well in a white opaque 96-well microtiter plate. After an incubation period of 2-4 hours at 37° C. in a 5% CO2 incubator, compounds are added at various concentrations. Drugs are resuspended in DMSO at a stock concentration of 10 mM. Then, drugs are serially diluted at twice the final concentration in the same medium. One volume (100 μL) of each drug dilution is then added to each well that contains cells. A control compound is used as an internal standard for each plate assay. Sixteen wells are used as control (0% inhibition) without drug. […] Values from 100% inhibited wells were averaged and used as the background value. Cells are further incubated for four days at 37° C. in a 5% CO2 incubator. Following the incubation time of four days, the media is removed and wells are washed once with 150 μL of PBS at room temperature for five minutes. Cells are then fixed for five minutes using 150 μL per well of cold (−20° C.) fixative solution (50% methanol/50% acetone mix). Cells are then washed twice with 150 μL of PBS (phosphate buffered saline) per well, following the addition of 150 μL of blocking solution, cells are incubated for one hour at 37° C. to block non-specific sites. The blocking solution is removed and cells are washed twice with 150 μL of PBS per well and once with 150 μL of PBSTS solution (PBS/0.1% Triton X-100/0.02% SDS) per well. […] Then, substrate solution (100 μl, SuperSignal ELISA Pico Chemiluminescent Substrate, Fisher Cat. No. 37069) is added in each well and plates are incubated 60 minutes at room temperature prior to reading the luminescence (relative light units) on the Analyst HT plate reader. The percentage of inhibition at each drug concentration tested (in duplicate) is calculated.

For test [2], the system named is HCV (1b) replicon, Huh-ET cells. The test is described as follows: Cell-based luciferase reporter HCV (1b) RNA replication assay. Particulars: Hepatitis C virus; for EC50: 96 h, HCV 1b replicon, luciferase, 4 days incubation, read-out: EC50_1b; for IC50: sub-genomic replicon 1b cell line. From the text: Cell-Based Luciferase Reporter HCV (Ib) RNA Replication Assay Cell Culture
Replicon cell lines Huh-5.2 are derived from the Huh-7 hepatocarcinoma cell line are maintained in culture as generally described in Krieger, N; Lohmann, V; Bartenschlager, R. Enhancement of hepatitis C virus RNA replication by cell culture-adaptive mutations. J. Virol. 2001, 75, 4614-4624. The Huh-5.2 cells contain the highly cell culture-adapted replicon I389luc-ubi-neo/NS3-375.1 construct that carries, in addition to the neomycin gene, an integrated copy to the firefly luciferase gene (Krieger, N; Lohmann, V; Bartenschlager, R. Enhancement of hepatitis C virus RNA replication by cell culture-adaptive mutations. J. Virol. 2001, 75, 4614-4624). This cell line allows measurement of HCV RNA replication and translation by measuring luciferase activity. It has been previously shown that the luciferase activity tightly follows the replicon RNA level in these cells (Krieger, N; Lohmann, V; Bartenschlager, R. Enhancement of hepatitis C virus RNA replication by cell culture-adaptive mutations. J. Virol. 2001, 75, 4614-4624). The Huh-ET cell line has the same features as those mentioned for Huh-5.2 cell line, except that ET cells are more robust and contain an adaptative mutation in the HCV NS4B gene instead of NS5A. Both cell lines are maintained in cultures at a sub-confluent level (<85%) as the level of replicon RNA is highest in actively proliferating cells. The culture media used for cell passaging consist of DMEM (Gibco BRL Laboratories, Mississauga, ON, Canada) supplemented with 10% foetal bovine serum with 1% penicilin/streptomycin, 1% glutamine, 1% sodium pyruvate, 1% non-essential amino acids, and 180 μg/ml of G418 final concentration. Cells are incubated at 37° C., in an atmosphere of 5% CO2 and passaged twice a week to maintain sub-confluence.
Approximately 3000 viable Huh-ET cells (100 μl) are plated per well in a white opaque 96-well microtiter plate. The cell culture media used for the assay is the same as described above except that it contains no G418 and no phenol red. After an incubation period of 3-4 hours at 37° C. in a 5% CO2 incubator, compounds (100 μl) are added at various concentrations. Cells are then further incubated for 4 days at 37° C. in a 5% CO2 incubator. Thereafter, the culture media is removed and cells are lysed by the addition of 95 μL of the luciferase buffer (luciferin substrate in buffered detergent). Cell lysates are incubated at room temperature and protected from direct light for at least 10 minutes. Plates are read for luciferase counts using a luminometer (Wallac MicroBeta Trilux, Perkin Elmer™, MA, USA).
Curves are fitted to data points using nonlinear regression analysis, and IC50s are interpolated from the resulting curve using GraphPad Prism software, version 2.0 (GraphPad Software Inc., San Diego, Calif., USA).
For orientation: Reporter assays use an easily measured gene product as a stand-in for the process of interest.

Regarding `COC(=O)N[C@H](C(=O)N1CCC[C@H]1c1ncc(-c2ccc(-c3ccc(-c4ccc5[nH]c([C@@H]6CCCN6C(=O)[C@@H](NC(=O)OC)C(C)C)nc5c4)cc3)cc2)[nH]1)C(C)C` [Compound 4, ((S)-1-{(S)-2-[5-(4′-{2-[(S)-1-((S)-2-Methoxycarbonylamino-3-methyl-butyryl)-pyrrolidin-2-yl]-3H-benzoimidazol-5-yl}-biphenyl-4-yl)-1H-imidazol-2-yl]-pyrrolidine-1-carbonyl}-2-methyl-propyl)-carbamic acid methyl ester], the figures for the IC50 in test [1] and in test [2] were 140 pM and 13 pM, respectively. Also, the EC50 in test [2] is ≤ 5 nM.

`COC(=O)NC(C(=O)N1[C@@H](C)CC[C@H]1c1nc2cc(-c3ccc(-c4ccc(-c5cnc([C@@H]6CC[C@H](C)N6C(=O)[C@@H](NC(=O)OC)C(C)C)[nH]5)cc4)cc3)ccc2[nH]1)C(C)C` (stereo partly drawn) [Compound 13, Methyl N-[(1S)-1-[(2S,5S)-2-[4-[4-[4-[2-[(2S,5S)-1-[2-(methoxycarbonylamino)-3-methyl-butanoyl]-5-methyl-pyrrolidin-2-yl]-1H-benzimidazol-5-yl]phenyl]phenyl]-1H-imidazol-2-yl]-5-methyl-pyrrolidine-1-carbonyl]-2-methyl-propyl]carbamate]: the results for the IC50 in test [1] and in test [2] were 36 pM and 2.6 pM, respectively. The EC50 in test [2] was ≤ 5 nM.

In the case of `COC(=O)N[C@H](C(=O)N1C[C@@H](C)C[C@H]1c1nc(-c2ccc(-c3ccc(-c4ccc5nc([C@@H]6C[C@H](C)CN6C(=O)[C@@H](NC(=O)OC)C(C)C)[nH]c5c4)cc3)cc2)c[nH]1)C(C)C` [Compound 5, ((S)-1-{(2S,4S)-2-[5-(4′-{2-[(2S,4S)-1-((S)-2-Methoxycarbonylamino-3-methyl-butyryl)-4-methyl-pyrrolidin-2-yl]-1H-imidazol-4-yl}-biphenyl-4-yl)-1H-benzoimidazol-2-yl]-4-methyl-pyrrolidine-1-carbonyl}-2-methyl-propyl)-carbamic acid methyl ester], the midpoint of inhibition in test [1], the IC50, lay at 4.1 pM. In test [2], the EC50 is ≤ 5 nM and the IC50 is 5 pM.

Consider `COC(=O)N[C@H](C(=O)N1C[C@@H](C)C[C@H]1c1nc(-c2ccc(-c3ccc(-c4ccc5[nH]c([C@@H]6CC[C@H](C)N6C(=O)[C@@H](NC(=O)OC)C(C)C)nc5c4)cc3)cc2)c[nH]1)C(C)C` [Compound 18], for which the IC50 in test [1] and in test [2] was 8.5 pM throughout. Besides, the EC50 in test [2] is ≤ 5 nM.
